Patent publication US8242125B2, “Heterobicyclic carboxamides as inhibitors for kinases” (Novartis AG, priority 2008, dated 2012)

Biological target: T1, Ba/F3-Tel-KDR cells (Homo sapiens, UniProt P35968)
T1 construct: fused on or other part: N-terminal oligomerising part of TEL (ETV6) fused to the tyrosine kinase domain of KDR; P41212 (Transcription factor ETV6)
Assay: Ba/F3-Tel-KDR cell viability inhibition assay (CellTiter-Glo)
Format: cell-based
Settings: 48 hour incubation, read-out: IC50 (the source's name)
Source text: This assay is a cell-based assay to measure the compound-mediated suppression of Ba/F3 cell proliferation and viability using the Luciferase bioluminescent assay commercially known as CellTiter-Glo™. In this case, a specifically modified cell line, Ba/F3-Tel-KDR is used. These cells are engineered such that intact signaling through the tyrosine kinase domain of KDR is critical for their survival. Inhibition of KDR signaling results in cell death which is quantitated using a cell viability assay. This is a homogeneous bioluminescent assay that yields a rapid, simple and sensitive determination of the number of viable cells in culture by generation of a luminescent signal proportional to the amount of ATP present in cells. KDR inhibitor compound dilutions are incubated with Ba/F3-Tel-KDR cells over a 48 hour period and the resulting cell viability is measured with a suitable luminometer.
This assay is performed in Ba/F3-Tel-KDR cells. Cells are cultured at 37° C. […] Medium is changed the day before the experiment. On Day 1, cells are plated into white solid bottom 384-well plates at 5000 cells/well in 25 μl culture medium. A ten-point dose response curve is prepared as follows: compounds are first serially diluted 3-fold in 100% DMSO, starting from 10 mM. […] 5 μl of diluted compound is added to cell plates with 25 μl culture medium. […] The final concentration of DMSO is 0.1%. Wells without or with cells plus 0.1% DMSO serve as controls. On Day 3, Lyophilized CellTiter-Glo buffer and substrate and the cell plates are first equilibrated to room temperature. Substrate is reconstituted in buffer and 30 μl reconstituted substrate is added to each well. After incubation for 10 minutes at room temperature, plates are read in a luminometer. Compounds are tested in a 10-point dose response and each concentration is run in triplicate on a given plate. Each plate is run in duplicate.

T1 sequence (P35968 whole entry, change not shown, the tested form may be a part): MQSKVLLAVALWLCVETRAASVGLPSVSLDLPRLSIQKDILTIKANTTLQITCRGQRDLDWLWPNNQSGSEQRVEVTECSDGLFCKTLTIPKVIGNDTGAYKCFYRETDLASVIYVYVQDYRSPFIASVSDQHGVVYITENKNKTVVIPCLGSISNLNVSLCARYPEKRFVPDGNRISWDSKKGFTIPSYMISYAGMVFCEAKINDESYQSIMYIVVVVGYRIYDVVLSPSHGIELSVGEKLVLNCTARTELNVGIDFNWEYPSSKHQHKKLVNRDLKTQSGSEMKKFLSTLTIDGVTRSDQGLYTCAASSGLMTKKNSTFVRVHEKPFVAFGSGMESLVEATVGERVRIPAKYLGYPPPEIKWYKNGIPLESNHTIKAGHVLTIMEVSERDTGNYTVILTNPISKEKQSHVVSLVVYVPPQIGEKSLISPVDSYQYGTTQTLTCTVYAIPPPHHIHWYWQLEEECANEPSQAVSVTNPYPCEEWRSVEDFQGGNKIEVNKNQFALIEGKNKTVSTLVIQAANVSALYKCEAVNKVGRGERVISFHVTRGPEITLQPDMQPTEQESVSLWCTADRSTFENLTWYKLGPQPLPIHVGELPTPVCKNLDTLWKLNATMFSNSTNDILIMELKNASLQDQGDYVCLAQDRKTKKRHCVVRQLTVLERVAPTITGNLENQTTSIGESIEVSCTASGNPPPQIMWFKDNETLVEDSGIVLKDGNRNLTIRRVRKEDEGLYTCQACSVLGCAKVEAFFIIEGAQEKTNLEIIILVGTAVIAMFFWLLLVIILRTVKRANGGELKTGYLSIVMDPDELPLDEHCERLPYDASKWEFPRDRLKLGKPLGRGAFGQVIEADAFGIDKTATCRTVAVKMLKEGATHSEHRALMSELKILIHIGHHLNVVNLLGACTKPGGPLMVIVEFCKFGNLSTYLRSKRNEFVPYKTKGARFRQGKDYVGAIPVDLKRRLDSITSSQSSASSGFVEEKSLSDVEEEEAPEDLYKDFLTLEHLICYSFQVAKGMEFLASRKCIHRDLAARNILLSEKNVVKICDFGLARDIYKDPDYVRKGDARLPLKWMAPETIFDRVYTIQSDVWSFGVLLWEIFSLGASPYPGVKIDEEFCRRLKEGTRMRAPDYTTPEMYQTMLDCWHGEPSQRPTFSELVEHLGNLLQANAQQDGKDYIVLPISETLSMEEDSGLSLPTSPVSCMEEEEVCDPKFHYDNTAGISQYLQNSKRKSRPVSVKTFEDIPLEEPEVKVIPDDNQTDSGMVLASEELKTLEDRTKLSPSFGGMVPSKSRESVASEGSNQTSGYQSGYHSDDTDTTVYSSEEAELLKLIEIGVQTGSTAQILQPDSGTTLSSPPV

SMILES	GI50 [nM]
Cn1ccc2c(NC(=O)n3ccc4cc(Oc5ncnc6c5CNC6)ccc43)cccc21 [Example 111-B, 5-(6,7-dihydro-5H-pyrrolo[3,4-d]pyrimidin-4-yloxy)-indole-1-carboxylic acid (1-methyl-1H-indol-4-yl)-amide]	10
Cc1c(Oc2ncnc3c2CNC3)ccc2c1ccn2C(=O)Nc1cc(C2CC2)on1 [Example 134-AC]	4
Cc1c(Oc2ncnc3c2C[C@H](C)NC3)ccc2c1ccn2C(=O)Nc1cc(C2CC2)on1 [Example 134-AG]	95
Cc1c(NC(=O)n2ccc3cc(Oc4ncnc5c4CNC5)ccc32)noc1C1(C)CC1 [Example 134-AM]	6
O=C(Nc1cc(C2(C(F)(F)F)CC2)on1)n1ccc2cc(Oc3ncnc4c3CCCNC4)ccc21 [Example 134-A]	3
CC(=O)N1Cc2ncnc(Oc3ccc4c(ccn4C(=O)Nc4ccn(C(C)(C)C)n4)c3)c2C[C@@H]1C [Example 135-AA]	< 1
CC(=O)N1Cc2ncnc(Oc3ccc4c(ccn4C(=O)Nc4cc(C5(C)CC5)on4)c3)c2C1 [Example 135-AS]	10
CC(=O)N1Cc2ncnc(Oc3ccc4c(ccn4C(=O)Nc4cc(C5CC5)on4)c3C)c2C[C@@H]1C [Example 135-BE]	< 1
CCC(=O)N1Cc2ncnc(Oc3ccc4c(ccn4C(=O)Nc4cc(C5CC5)on4)c3)c2C[C@@H]1C [Example 135-BH]	2
CCCC(=O)N1Cc2ncnc(Oc3ccc4c(ccn4C(=O)Nc4cc(C5CC5)on4)c3)c2C[C@@H]1C [Example 135-BI]	3
C[C@H]1Cc2c(ncnc2Oc2ccc3c(ccn3C(=O)Nc3cc(C4CC4)on3)c2)CN1C(=O)C1CC1 [Example 135-D]	< 1
CC(C)CC(=O)N1Cc2ncnc(Oc3ccc4c(ccn4C(=O)Nc4cc(C5(C(F)(F)F)CC5)on4)c3)c2C[C@@H]1C [Example 135-E]	< 1
CCN1Cc2ncnc(Oc3ccc4c(ccn4C(=O)Nc4cc(C5(C(F)(F)F)CC5)on4)c3)c2C[C@@H]1C [Example 136-B]	2
CCN1Cc2ncnc(Oc3ccc4c(ccn4C(=O)Nc4cc5n(n4)CCC5(C)C)c3)c2C[C@@H]1C [Example 136-I]	1
C[C@H]1Cc2c(ncnc2Oc2ccc3c(ccn3C(=O)Nc3cc(C4CC4)on3)c2)CN1C [Example 136-J]	36
C[C@H]1Cc2c(ncnc2Oc2ccc3c(ccn3C(=O)Nc3cc(C4(C(F)(F)F)CC4)on3)c2)CN1CC1CC1 [Example 136-K]	91
CCn1nc(NC(=O)n2ccc3cc(Oc4cc(CNC)ncn4)ccc32)cc1C1CC1 [Example 137-AA]	2
CNCc1cc(Oc2ccc3c(ccn3C(=O)Nc3cc(C4CC4)n(C4CC4)n3)c2)ncn1 [Example 137-AB]	1
CNCc1cc(Oc2ccc3c(ccn3C(=O)Nc3cc(C4CC4)[nH]n3)c2)ncn1 [Example 137-F]	19
CC(C)c1cc(NC(=O)n2ccc3cc(Oc4cc(CNC5CC5)ncn4)ccc32)n[nH]1 [Example 137-I]	100
CNCc1cc(Oc2ccc3c(ccn3C(=O)Nc3cc(C4CC4)n(C)n3)c2)ncn1 [Example 137-N]	14
CNCc1cc(Oc2ccc3c(ccn3C(=O)Nc3cc(C)n(CC(F)(F)F)n3)c2)ncn1 [Example 137-P]	11
CNCc1cc(Oc2ccc3c(ccn3C(=O)Nc3cc(C(F)(F)F)n(C)n3)c2)ccn1 [Example 149-F]	6
